Target: T1, hURAT1 (Homo sapiens, UniProt Q96S37)
T1 sequence (Q96S37 1-553): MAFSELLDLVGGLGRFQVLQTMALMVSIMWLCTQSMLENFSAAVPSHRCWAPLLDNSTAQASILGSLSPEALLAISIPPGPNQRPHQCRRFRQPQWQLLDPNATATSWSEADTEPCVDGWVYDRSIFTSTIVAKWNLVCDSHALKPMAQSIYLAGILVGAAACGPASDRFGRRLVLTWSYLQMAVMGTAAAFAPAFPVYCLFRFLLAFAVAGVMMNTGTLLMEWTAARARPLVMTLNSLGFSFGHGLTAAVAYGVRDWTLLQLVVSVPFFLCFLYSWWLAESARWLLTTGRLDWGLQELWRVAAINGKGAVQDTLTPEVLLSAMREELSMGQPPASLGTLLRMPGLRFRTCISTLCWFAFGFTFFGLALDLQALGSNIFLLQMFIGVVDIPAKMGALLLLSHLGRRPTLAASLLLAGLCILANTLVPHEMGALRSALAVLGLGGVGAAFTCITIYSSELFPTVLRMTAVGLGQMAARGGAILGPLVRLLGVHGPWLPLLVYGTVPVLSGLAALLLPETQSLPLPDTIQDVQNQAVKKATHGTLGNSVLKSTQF
Experiment: Inhibition assay of uric acid transport in HEK293-hURAT1 transfection cell line (14C-uric acid uptake)
Format: cell-based
Conditions: for inhibition at 0.5 µM: compound concentration 500 nM, HEK293-hURAT1 stable cells, 14C-uric acid, mean of three tests ±SD, read-out: Inhibition rate of uric acid transport, ±SD (%); for inhibitory effects of uric acid transport in HEK293-hURAT1 transfection cell line, in words: in comparison with control drug Zurampic at 500 nM
Procedure: Inhibition Assay of Uric Acid Transport for Compounds in HEK293-hURAT1 Transfection Cell Line
1. Construction of a HEK293 stable cell line with high expression of hURAT1:
The plasmid pCMV6-hURAT1 was transfected into HEK293 cells, then the stable strain was obtained by the G418 (final concentration of 500 μg/mL) resistance screening, which is the high expression of hURAT1 transporter membrane protein. It can be used for in vitro inhibition assay of uric acid transporter hURAT1 (Weaver Y M, Ehresman D J, Butenhoff J L, et al. Roles of rat renal organic anion transporters in transporting perfluorinated carboxylates with different chain lengths. Toxicological Sciences, 2009, 113(2):305-314).
2. Coating 24-well plate: to a coated 24-well plate was added 200 μl of 0.1 mg/mL poly-lysine per well and the plate was left overnight. Poly-lysine was removed from wells. The wells were cleaned thoroughly with steriled water and dried for use.
3. To the above coated 24-well plate was added HEK293-hURAT1 stable cells (2×10^5 cells per well). The cells were cultured at 37° C. under 5% CO2 for 3 days.
4. Preparation of HBSS buffer: the following reagents were weighed according to the final concentration of 125 mM sodium gluconate, 4.8 mM potassium gluconate, 1.3 mM calcium gluconate, 1.2 mM KH2PO4, 1.2 mM MgSO4, 5.6 mM glucose and 25 mM HEPES. Deionized water was added to reach the corresponding volume, and the solution was fully mixed to give HBSS (pH value: 7.4). The buffer was stored at −20° C. in a refrigerator.
5. At the day of experiment, the HBSS buffer was taken out of the refrigerator and warmed to 37° C. in a water bath. Taken out the 24-well plate with HEK293-hURAT1 stable cells, removed the culture medium and washed cells with HBSS, then add 160 μL of HBSS and 20 μL test compound per well. The final concentration of tested compound per well is 500 nM. The blank control well contains only 180 μL of HBSS without tested compound. The plate was placed at room temperature for 10 minutes.
6. To each well was added 20 μL of 50 μM ^14C-uric acid. The 24-well plate was placed at room temperature for 20 minutes.
7. The solution in each well was removed and the cells in each well were washed with the pre-cooled HBSS buffer. To each well was added 0.2 M NaOH to dissolve the cells. The solution containing cell fragments was collected and the appropriate amount of scintillation liquid was added. The radioisotope intensity of the ^14C-Uric acid (CPM value) was then detected by using PerkinElmer MicroBeta Trilux 1450 liquid scintillation analyzer.
8. In HEK293 transfected cell lines, the formula for calculating the inhabitation rate of uric acid transport for compounds was shown as below (Table 1), the CPM value of the tested compounds was represented by CPM(tested compound) and the CPM value of the blank control was represented by CPM(blank control). All tests were repeated three times, and the results were averaged and the standard deviation (SD) was calculated: Inhibition rate(%)(500 nM compound concentration)=(CPM(blank control)−CPM(test compound))/CPM(blank control)×100%

| SMILES | inhibition at 0.5 µM [%] | inhibitory effects of uric acid transport in HEK293-hURAT1 transfection cell line, in words |
| --- | --- | --- |
| CCn1nc2c(c1C(=O)c1cc(Br)c(O)c(Br)c1)CCCC2 [Compound 41, (3,5-dibromo-4-hydroxyphenyl)(2-ethyl-4,5,6,7-tetrahydro-2H-indazol-3-yl)methanone] | 46.2 ± 6.18 | very good inhibitory effects |
| CCc1nc2n(c1C(O)c1cc(Br)c(O)c(C#N)c1)CCCC2 (stereo not shown) [Compound 63, 3-bromo-5-((2-ethyl-5,6,7,8-tetrahydroimidazo[1,2-a]pyridin-3-yl)hydroxymethyl)-2-hydroxyl benzonitrile] | 42.3 ± 2.6 | – |
| CCc1nc2n(c1C(=O)c1cc(Br)c(O)c(Br)c1)CCC(O)C2 (stereo not shown) [Compound 23, (3,5-dibromo-4-hydroxyphenyl)(2-ethyl-7-hydroxy-5,6,7,8-tetrahydroimidazo[1,2-a]pyridine-3-yl)methanone] | 47.5 ± 1.65 | very good inhibitory effects |
| O=C(O)CSc1nnc(Br)n1-c1ccc(C2CC2)c2ccccc12 [Zurampic, Lesinurad, reference compound] | 27.6 ± 2.89 | – |
| CCc1nc2n(c1C(O)c1cc(Br)c(O)c(Br)c1)CCCC2 (stereo not shown) [Compound 42, 2,6-dibromo-4-[(2-ethyl-5,6,7,8-tetrahydroimidazo[1,2-a]-pyridin-3-yl)hydroxymethyl]phenol] | 47.6 ± 3.08 | very good inhibitory effects |
| CCc1nc2n(c1C(=O)c1cc(Br)c(O)c(Br)c1)CCC(OC)C2 (stereo not shown) [Compound 25, (3,5-dibromo-4-hydroxyphenyl)-(2-ethyl-7-methoxy-5,6,7,8-tetrahydroimidazo[1,2-a]pyridin-3-yl)methanone] | 47.6 ± 4.12 | very good inhibitory effects |
| CCc1nc2n(c1C(=O)c1cc(Br)c(O)c(Br)c1)CCCC2 [Compound 5, (3,5-dibromo-4-hydroxyphenyl)(2-ethyl-5,6,7,8-tetrahydroimidazo[1,2-a]pyridine-3-yl)methanone] | 53.4 ± 4.54 | very good inhibitory effects |
| CCn1nc2c(c1C(=O)c1cc(Br)c(O)c(Br)c1)COCC2 [Compound 58] | 38.6 ± 6.3 | – |
| CCc1nc2n(c1C(=O)c1cc(C)c(O)c(Br)c1)CCCC2 [Compound 48, (3-bromo-4-hydroxy-5-methylphenyl)(2-ethyl-5,6,7,8-tetrahydroimidazo[1,2-a]pyridin-3-yl)methanone] | 46.1 ± 4.91 | very good inhibitory effects |
| CCc1nn2c(c1C(=O)c1cc(Br)c(O)c(Br)c1)CCCC2 [Compound 32] | 43.4 ± 2.4 | – |
| CCc1nc2n(c1C(=O)c1cc(Br)c(O)c(C#N)c1)CCCC2 [Compound 17, 3-bromo-5-(2-ethyl-5,6,7,8-tetrahydroimidazo[1,2-a]pyridine-3-carbonyl)-2-hydroxybenzonitrile] | 47.46 ± 0.14 | very good inhibitory effects |
| CCc1nc2n(c1C(=O)c1cc(Br)c(O)c(Br)c1)CC(C)CC2 (stereo not shown) [Compound 43, (3,5-dibromo-4-hydroxyphenyl)(2-ethyl-6-methyl-5,6,7,8-tetrahydroimidazo[1,2-a]pyridin-3-yl)methanone] | 53.2 ± 9.36 | very good inhibitory effects |
| [2H]C1c2nc(CC)c(C(=O)c3cc(Br)c(O)c(Br)c3)n2C([2H])C([2H])([2H])C1[2H] (stereo not shown) [Compound 10, (3,5-dibromo-4-hydroxyphenyl)(5,6,6,7,8-pentadeuterio-2-ethyl-5,6,7,8-tetrahydroimidazo[1,2-a]pyridin-3-yl)methanone] | 47.5 ± 3.12 | very good inhibitory effects |

Reference: patent US11597725B2, “URAT1 inhibitor for promoting uric acid excretion” (JIANGSU ATOM BIOSCIENCE AND PHARMACEUTICAL CO., LTD., priority 2017, dated 2023)
